Laboratory results published in patent US20070249620A1, “Urea Derivative” (priority 2004, published 2007).

Tests used:
mouse DGAT1 = target: T1, mouse DGAT1 (Mus musculus, UniProt Q9Z2A7); test: DGAT1 inhibitory effect test (microsome fraction, [14C]-oleoyl-CoA, triglyceride radioactivity by TLC); type: biochemical; details: 0.5 h; concentration of the test compound 0.1 μg/ml; mouse DGAT1 microsomes, 23° C., 30 minutes; read-out: Inhibitory ratio
T1 construct: made in house; host or cells: insect cells (High Five, Sf9, Sf21, etc.), baculovirus expression system (Invitrogen)
T1 sequence (Q9Z2A7 1-498): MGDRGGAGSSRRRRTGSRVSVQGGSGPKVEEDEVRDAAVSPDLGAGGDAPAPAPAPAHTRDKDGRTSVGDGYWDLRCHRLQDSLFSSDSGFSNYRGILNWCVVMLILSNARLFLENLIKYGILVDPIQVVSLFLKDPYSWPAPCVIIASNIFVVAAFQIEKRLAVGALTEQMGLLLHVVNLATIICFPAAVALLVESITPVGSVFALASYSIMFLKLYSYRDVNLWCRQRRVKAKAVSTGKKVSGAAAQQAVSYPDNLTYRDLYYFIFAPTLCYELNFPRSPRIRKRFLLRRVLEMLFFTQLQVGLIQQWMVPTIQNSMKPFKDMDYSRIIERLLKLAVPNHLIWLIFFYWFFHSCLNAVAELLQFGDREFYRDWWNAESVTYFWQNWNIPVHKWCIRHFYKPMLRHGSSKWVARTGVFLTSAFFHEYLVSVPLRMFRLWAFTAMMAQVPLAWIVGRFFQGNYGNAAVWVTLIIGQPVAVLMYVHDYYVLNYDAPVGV
Description: The cDNA which encodes mouse DGAT1 was cloned from a mouse cDNA library by polymerase chain reaction (hereinafter referred to as “PCR”) and introduced into an insect cell virus vector (baculovirus expression system, Invitrogen). After insect cells (High Five, Sf9, Sf21, etc., Invitrogen) were infected with the virus, the cells were collected in buffer A [0.1M sucrose, 50 mM KCl, 40 mM potassium phosphate (pH 7.4), 30 mM EDTA, 1% Protease inhibitor cocktail (SIGMA, P-8340)] and crushed with a Polytron homogenizer. The supernatant obtained by subjecting the homogenate to low speed centrifugal processing (10,000 ×g, 30 minutes) was further subjected to higher-speed centrifugal processing (100,000 ×g, 60 minutes) and the precipitate was resuspended in buffer A as the microsome fraction and used as DGAT1 enzyme. The DGAT1 enzyme was divided into small volumes and stored at −80° C.
(2) DGAT1 Inhibitory Effect Test
The reaction liquid of the following composition [175 mM Tris-HCl (pH 8.0), 8 mM MgCl2, 1 mg/ml BSA, 0.5 mM 1,2-dioleoyl-sn-glycerol (EtOH solution of 10-fold concentration, 10% added), 30 μM[14C]-oleoyl-CoA (about 50 mCi/mmol), 0.5% triton X-100, DGAT1 enzyme (10 μg) obtained in Test Example 1(1), test compound or vehicle (DMSO/MeOH, 7:3 solution, 5% added), total volume 50 μl] was incubated at room temperature (23° C.) for 30 minutes. A reaction terminating solution (70 μl) consisting of isopropanol/1-heptane/water (80:20:2, v/v/v) was added to the reaction solution and stirred, and subsequently stirred with water (30 μl) and 1-heptane (100 μl). The 1-heptane layer (50 μl) was spotted onto a TLC plate and developed with a developing solvent consisting of 1-hexane/diethyl ether/acetic acid (85:15:1, v/v/v). Radioactivity of triglyceride fraction was quantified by BAS2000 bio image analyzer (Fuji Film) and the inhibitory effect of the test compounds was calculated by the following formula through comparison with control. Here, radioactivity at no reaction (0 minutes incubation) was assumed as background. Inhibitory ratio=100−[(Radioactivity when test compound was added)−(Background)]/[(Radioactivity by control)−(Background)]×100

Row | SMILES | inhibition at 0.1 µg/mL (mouse DGAT1) [%] | melting point [°C]
1 | COc1ccc(Cl)cc1NC(=O)Nc1ccc(N2CCN(C(=O)Nc3c(F)cccc3F)CC2)cc1 [Example 77, 4-{4-[3-(5-chloro-2-methoxy-phenyl)-ureido]-phenyl}-piperazine-1-carboxylic acid (2,6-difluoro-phenyl)-amide] | ≥ 50 | 230 to 232
2 | COc1ccc(Cl)cc1NC(=O)Nc1ccc(N2CCN(C(=O)Nc3ccccc3Cl)CC2)cc1 [Example 78, 4-{4-[3-(5-chloro-2-methoxy-phenyl)-ureido]-phenyl}-piperazine-1-carboxylic acid (2-chloro-phenyl)-amide] | ≥ 50 | 231 to 233
3 | COc1ccc(Cl)cc1NC(=O)Nc1ccc(N2CCN(C(=O)Nc3c(C)cccc3Cl)CC2)cc1 [Example 79, 4-{4-[3-(5-chloro-2-methoxy-phenyl)-ureido]-phenyl}-piperazine-1-carboxylic acid (2-chloro-6-methyl-phenyl)-amide] | ≥ 50 | 225 to 227
4 | CCOc1ccccc1NC(=O)Nc1ccc(N2CCN(C(=O)Nc3ccccc3C(F)(F)F)CC2)cc1 [Example 80, 4-{4-[3-(2-ethoxy-phenyl)-ureido]-phenyl}-piperazine-1-carboxylic acid (2-trifluoromethyl-phenyl)-amide] | ≥ 50 | 201 to 203
5 | CCOc1ccccc1NC(=O)Nc1ccc(N2CCN(C(=O)Nc3ccccc3C)CC2)cc1 [Example 81, 4-{4-[3-(2-ethoxy-phenyl)-ureido]-phenyl}-piperazine-1-carboxylic acid o-tolylamide] | ≥ 50 | 206 to 208
6 | CCOc1ccccc1NC(=O)Nc1ccc(N2CCN(C(=O)Nc3c(C)cccc3Cl)CC2)cc1 [Example 82, 4-{4-[3-(2-ethoxy-phenyl)-ureido]-phenyl}-piperazine-1-carboxylic acid (2-chloro-6-methyl-phenyl)-amide] | ≥ 50 | 215 to 217
7 | CCOc1ccc(C)cc1NC(=O)Nc1ccc(N2CCN(C(=O)Nc3ccccc3C(F)(F)F)CC2)cc1 [Example 83, 4-{4-[3-(2-ethoxy-5-methyl-phenyl)-ureido]-phenyl}-piperazine-1-carboxylic acid (2-trifluoromethyl-phenyl)-amide] | ≥ 50 | 219 to 220
8 | CCOc1ccc(C)cc1NC(=O)Nc1ccc(N2CCN(C(=O)Nc3ccccc3C)CC2)cc1 [Example 84, 4-{4-[3-(2-ethoxy-5-methyl-phenyl)-ureido]-phenyl}-piperazine-1-carboxylic acid o-tolylamide] | ≥ 50 | 190 to 192
9 | CCOc1ccc(C)cc1NC(=O)Nc1ccc(N2CCN(C(=O)Nc3c(C)cccc3Cl)CC2)cc1 [Example 85, 4-{4-[3-(2-ethoxy-5-methyl-phenyl)-ureido]-phenyl}-piperazine-1-carboxylic acid (2-chloro-6-methyl-phenyl)-amide] | ≥ 50 | 157 to 159

The remaining lines, values ahead:

Row | inhibition at 0.1 µg/mL (mouse DGAT1) [%] | melting point [°C] | SMILES
10 | ≥ 50 | 186 to 187 | COc1ccc(C)cc1NC(=O)Nc1ccc(N2CCN(C(=O)Nc3ccc(Cl)cc3C(F)(F)F)CC2)cc1 [Example 86, 4-{4-[3-(2-methoxy-5-methyl-phenyl)-ureido]-phenyl}-piperazine-1-carboxylic acid (4-chloro-2-trifluoromethyl-phenyl)-amide]
11 | ≥ 50 | 172 to 174 | COc1ccc(C)cc1NC(=O)Nc1ccc(N2CCN(C(=O)Nc3ccc(F)cc3C(F)(F)F)CC2)cc1 [Example 87, 4-{4-[3-(2-methoxy-5-methyl-phenyl)-ureido]-phenyl}-piperazine-1-carboxylic acid (4-fluoro-2-trifluoromethyl-phenyl)-amide]
12 | ≥ 50 | 215 to 217 | COc1ccc(C)cc1NC(=O)Nc1ccc(N2CCN(C(=O)Nc3c(C)cc(C)cc3C)CC2)cc1 [Example 88, 4-{4-[3-(2-methoxy-5-methyl-phenyl)-ureido]-phenyl}-piperazine-1-carboxylic acid (2,4,6-trimethyl-phenyl)-amide]
13 | ≥ 50 | 197 to 199 | CCOc1ccc(F)cc1NC(=O)Nc1ccc(N2CCN(C(=O)Nc3ccccc3C(F)(F)F)CC2)cc1 [Example 89, 4-{4-[3-(2-ethoxy-5-fluoro-phenyl)-ureido]-phenyl}-piperazine-1-carboxylic acid (2-trifluoromethyl-phenyl)-amide]
14 | ≥ 50 | 186 to 187 | CCOc1ccc(F)cc1NC(=O)Nc1ccc(N2CCN(C(=O)Nc3ccccc3C)CC2)cc1 [Example 90, 4-{4-[3-(2-ethoxy-5-fluoro-phenyl)-ureido]-phenyl}-piperazine-1-carboxylic acid o-tolylamide]
15 | ≥ 50 | 197 to 199 | CCOc1ccc(F)cc1NC(=O)Nc1ccc(N2CCN(C(=O)Nc3c(C)cccc3Cl)CC2)cc1 [Example 91, 4-{4-[3-(2-ethoxy-5-fluoro-phenyl)-ureido]-phenyl}-piperazine-1-carboxylic acid (2-chloro-6-methyl-phenyl)-amide]
16 | ≥ 50 | 205 to 206 | CCOc1ccc(F)cc1NC(=O)Nc1ccc(N2CCN(C(=O)Nc3c(C)cccc3C)CC2)cc1 [Example 92, 4-{4-[3-(2-ethoxy-5-fluoro-phenyl)-ureido]-phenyl}-piperazine-1-carboxylic acid (2,6-dimethyl-phenyl)-amide]
17 | ≥ 50 | 153 to 155 | CCOc1ccc(F)cc1NC(=O)Nc1ccc(N2CCN(C(=O)Nc3c(F)cccc3C(F)(F)F)CC2)cc1 [Example 93, 4-{4-[3-(2-ethoxy-5-fluoro-phenyl)-ureido]-phenyl}-piperazine-1-carboxylic acid (2-fluoro-6-trifluoromethyl-phenyl)-amide]
18 | ≥ 50 | 212 to 214 | CCOc1ccc(F)cc1NC(=O)Nc1ccc(N2CCN(C(=O)Nc3c(Cl)cccc3Cl)CC2)cc1 [Example 94, 4-{4-[3-(2-ethoxy-5-fluoro-phenyl)-ureido]-phenyl}-piperazine-1-carboxylic acid (2,6-dichloro-phenyl)-amide]
19 | ≥ 50 | 229 to 230 | COc1ccc(F)cc1NC(=O)Nc1ccc(N2CCN(C(=O)Nc3ccccc3C(F)(F)F)CC2)cc1 [Example 96, 4-{4-[3-(5-fluoro-2-methoxy-phenyl)-ureido]-phenyl}-piperazine-1-carboxylic acid (2-trifluoromethyl-phenyl)-amide]
20 | ≥ 50 | 222 to 224 | COc1ccc(F)cc1NC(=O)Nc1ccc(N2CCN(C(=O)Nc3ccccc3C)CC2)cc1 [Example 97, 4-{4-[3-(5-fluoro-2-methoxy-phenyl)-ureido]-phenyl}-piperazine-1-carboxylic acid o-tolylamide]
21 | ≥ 50 | 240 to 241 | COc1ccc(F)cc1NC(=O)Nc1ccc(N2CCN(C(=O)Nc3c(C)cccc3Cl)CC2)cc1 [Example 98, 4-{4-[3-(5-fluoro-2-methoxy-phenyl)-ureido]-phenyl}-piperazine-1-carboxylic acid (2-chloro-6-methyl-phenyl)-amide]
22 | ≥ 50 | 226 to 228 | COc1ccc(F)cc1NC(=O)Nc1ccc(N2CCN(C(=O)Nc3c(C)cccc3C)CC2)cc1 [Example 99, 4-{4-[3-(5-fluoro-2-methoxy-phenyl)-ureido]-phenyl}-piperazine-1-carboxylic acid (2,6-dimethyl-phenyl)-amide]
